Measured values from patent US20210308093A1, “ACTIVATOR FOR SIMULTANEOUSLY ACTIVATING OXIDATIVE PHOSPHORYLATION AND INHIBITING GLYCOLYSIS AND USE THEREOF” (LANZHOU UNIVERSITY, priority 2019, published 2021).
Entries after “also recorded” stand apart in the source; their conditions may differ.

Columns and labels:
[1] = system: HuH7 cells; experiment: MTT assay, proliferation inhibition of hepatocellular-carcinoma cell line HuH7; format: cell-based
Description: (§1) The present disclosure carries out experiments to test proliferation inhibition effects of baicalein on hepatocellular-carcinoma cell lines HuH7 and HepG2 respectively, with IC50 values calculated. […] Moreover, the present disclosure establishes a diethylnitrosamine-induced mouse liver cancer model which is then intervened with baicalein.
(§2) Hela, HepG2, and HuH7 cells (from China Center for Type Culture Collection (Wuhan, China)) were cultured at 37° C. with 5% CO2 in Dulbecco's modified Eagle medium (DMEM, Thermo Fisher Scientific) supplemented with 10% fetal bovine serum (Thermo Fisher Scientific) and 1% penicillin-streptomycin (Thermo Fisher Scientific).
(§3) 10^4 cells were added to a 96-well plate. 100 μL of pre-warmed medium was added to each well. After attachment, the cells were starved in a serum-free medium for 24 h, and then transferred to a normal medium containing 100 μM baicalein and cultured for another 24 h. After treatment, the cells were incubated with 100 μL of conventional medium containing 50 μg MTT (Sigma-Aldrich) for 4 h. Finally, purple precipitates were dissolved in 200 μL of DMSO (Sigma-Aldrich), and absorbance at 490 nm was measured by a microplate reader (Bio-Rad).

[2] = system: oxidative phosphorylation in HepG2 cells; experiment: Measurement of oxidative phosphorylation and glycolysis in HepG2 cells (Seahorse XF); format: cell-based
Excerpt: With quantitative proteomics analysis, the present disclosure finds that the natural product baicalein can activate the oxidative phosphorylation. Then, it is necessary to clarify relationship between activation of the oxidative phosphorylation by baicalein and anti-cancer activity thereof. Cancer cells have the “Warburg effect”, that is, cancer cells tend to use glycolysis in replace of the oxidative phosphorylation which normal cells tend to use, so that cancer cells grow at a much faster rate than normal cells. […] The present disclosure verifies this phenomenon in HepG2 and HuH7 cells. […] 1,000 cells or 4 μg mitochondria were added to the well plate provided by the Seahorse detection kit (Agilent, 103275-100). Related measurements were carried out following instructions.

[3] = system: HepG2 cells; experiment: MTT assay, proliferation inhibition of hepatocellular-carcinoma cell line HepG2; format: cell-based
Description: as §1, §2, §3

[4] = system: HuH7 cells; experiment: siRNA knockdown of key enzyme of oxidative phosphorylation, effect on anti-cancer activity (MTT, HuH7); format: cell-based
Excerpt: With quantitative proteomics analysis, the present disclosure finds that the natural product baicalein can activate the oxidative phosphorylation. Then, it is necessary to clarify relationship between activation of the oxidative phosphorylation by baicalein and anti-cancer activity thereof. Cancer cells have the “Warburg effect”, that is, cancer cells tend to use glycolysis in replace of the oxidative phosphorylation which normal cells tend to use, so that cancer cells grow at a much faster rate than normal cells. […] The present disclosure verifies this phenomenon in HepG2 and HuH7 cells. […] (See FIG. 4)
The siRNA constructs listed below were designed and synthesized by GenePharma (Shanghai, China). At a modeling stage before baicalein treatment, interference was performed based on the RNAiMAX (Thermo Fisher Scientific) protocol.
as §3

[5] = system: diethylnitrosamine-induced hepatocellular carcinoma; conditions: 400 mg/kg by gavage daily for 12 weeks
Description: as §1
(§4) All animal operations were carried out based on a protocol approved by the Animal Research Committee of Peking University, China, in accordance with the “Guidelines for Care and Use of Laboratory Animals” (NIH Publication No. 86-23, revised in 1985). All mice (C57BL/6j, Charles River, Beijing, China) were kept in a temperature-controlled barrier facility at Laboratory Animal Center in Peking University (laboratory animal facility approved by AAALAC) with a 12 h light/dark cycle, and had free access to food and water. Only male animals were used Animals were randomly grouped based on weight level. Five mice were selected for each group to meet requirements for statistical significance. A randomised, comparative, and single-blinded test was used. For wild littermates, modeling with diethylnitrosamine was started at 6 weeks of age and maintained for 24 weeks. After 12 weeks of modeling, 400 mg/kg baicalein (40 mg/mL saline) was administered by gavage daily for another 12 weeks, and then liver disease-related symptoms of these mice were analyzed.
(§5) A liver sample cut from a same leaf of each animal was fixed in 4% paraformaldehyde overnight at room temperature, dehydrated with an ethanol gradient, infiltrated with xylene and embedded in paraffin. A paraffin embedded tissue was used to prepare serial sections 5 μm thick for hematoxylin and eosin (H&E) staining.

[6] = mouse, in vivo
Description: as §1, §4, §5

[7] = system: oxidative phosphorylation in mitochondria; experiment: Measurement of oxidative phosphorylation (ATP production) in mitochondria extracted from HuH7 cells; format: biochemical; conditions: concentration gradient and incubation time gradient
Description: Based on the above results, effect of baicalein on oxidative phosphorylation needs to be clarified initially. Therefore, effects of different concentrations of baicalein on oxidative phosphorylation are tested at a cellular level. […] Further analysis finds that, baicalein (100 μM) can improve basal respiration value, maximum respiration value and ATP production in oxidative phosphorylation. […] In order to further confirm effect of baicalein on the oxidative phosphorylation, the present disclosure further extracts mitochondria, a main site where the oxidative phosphorylation locates, and tests effect of baicalein concentration gradient and incubation time gradient on oxidative phosphorylation in the mitochondria. […] At this point, the present disclosure discovers a natural activator of the oxidative phosphorylation, the baicalein. […] Measurement of oxidative phosphorylation with Seahorse XF (Agilent): HuH7 cells, HepG2 cells and mitochondria were prepared. 1,000 cells or 4 μg mitochondria were added to the well plate provided by the Seahorse detection kit (Agilent, 103275-100). Related measurements were carried out following instructions. Measurement of oxidative phosphorylation (ATP production) with QQQ-MS (AB Sciex): mitochondria were extracted from HuH7 cells. A reaction system was prepared according to Table 1 below. 4 μg of mitochondria was added to a 100 μL reaction system. […]

[8] = system: oxidative phosphorylation in HuH7 cells; experiment: Measurement of oxidative phosphorylation and glycolysis in HuH7 cells (Seahorse XF); format: cell-based
Description: Based on the above results, effect of baicalein on oxidative phosphorylation needs to be clarified initially. Therefore, effects of different concentrations of baicalein on oxidative phosphorylation are tested at a cellular level. […] Further analysis finds that, baicalein (100 μM) can improve basal respiration value, maximum respiration value and ATP production in oxidative phosphorylation. […] In order to further confirm effect of baicalein on the oxidative phosphorylation, the present disclosure further extracts mitochondria, a main site where the oxidative phosphorylation locates, and tests effect of baicalein concentration gradient and incubation time gradient on oxidative phosphorylation in the mitochondria. […] At this point, the present disclosure discovers a natural activator of the oxidative phosphorylation, the baicalein. […] 1,000 cells or 4 μg mitochondria were added to the well plate provided by the Seahorse detection kit (Agilent, 103275-100). Related measurements were carried out following instructions.

Structure (SMILES): O=c1cc(-c2ccccc2)oc2cc(O)c(O)c(O)c12 [baicalein]
- proliferation inhibition effect [1]: significantly inhibits
- glycolysis [2]: inhibits the glycolysis
- level of oxidative phosphorylation [2]: increasing level of the oxidative phosphorylation
- proliferation inhibition effect [3]: significantly inhibits
- anti-cancer activity after knockdown of a key enzyme of oxidative phosphorylation [4]: greatly weakened
- therapeutic effect on mice with hepatocellular carcinoma [5]: significant therapeutic effect
- liver toxicity [6]: no liver toxicity
- weight loss of mice [6]: no weight loss
- oxidative phosphorylation in the mitochondria [7]: activation of the oxidative phosphorylation in a concentration dependent and time dependent manner
- glycolysis [8]: inhibits the glycolysis
- ATP production in oxidative phosphorylation ([8]; baicalein 100 μM): can improve
- basal respiration value ([8]; baicalein 100 μM): can improve
- maximum respiration value ([8]; baicalein 100 μM): can improve
- level of oxidative phosphorylation ([8]; different concentrations of baicalein): activates the oxidative phosphorylation in a concentration dependent manner; also recorded: increasing level of the oxidative phosphorylation
